“Also recorded” adds a separate entry of the source. Numbered stars: 1 amine (or outer) side, 2 acyl side, 3 side chain; on linkers, the order of the positions; unused ones are H or OH. Bridge positions count the residues as written; N and C are the ends. Square brackets hold non-standard residues; d marks the D form. Peptide text beside a SMILES is read from it. CO = O=C([*:1])[*:2]; Nlys = NCCCCNCC(=O)O
Assays:
MOG35-55/CFA induced EAE = MOG35-55/CFA induced EAE model of multiple sclerosis; assay type: in vivo, mice
Protocol: FIG. 2. MIP treatment reduces severity of EAE. Mice were immunized with MOG35-55/CFA with PTX administration at day 0 and at 48 h. Groups of mice were treated with MIP (SEQ ID NO: 1, squares) or PBS (triangles) and mean clinical score was calculated.
FIG. 8. 4×4MyDI lowers disease in mouse EAE model. Mice were immunized with MOG35-55/CFA with PTX administration at day 0 and at 48 h. Groups of mice were treated with 4×4MyDI (squares, n=7) or PBS as control (circles, n=4) from day 0, three times a week.
FIG. 15. 4×4MyDI reduces severity of EAE. C57BL/6 mice were immunized with MOG35-55/CFA and administered pertussis toxin on day zero and after 48 h. Groups of mice were treated with 4×4MyDI at 4 mg/kg from day zero, three times a week, for a total of 9 treatments (squares, n=7) or an identical volume of PBS as control, using the same schedule of administration (circles, n=7). […] Clinical disease was scored daily. ***P<0.0001, 2-way ANOVA.
Effective peptides are examined for treatment of mice with EAE (the animal model of MS) applying several disease models. One model is described in Owens T. and Sriram S. Neurologic Clinics (1995) 13(1):51-73. In this model, C57B1 mice are immunized with the MOG protein in adjuvant and the onset of paralysis which appears 10-14 days following the induction, is evaluated daily. Two groups of animals are treated with two doses of the peptide administered orally by cannula on a daily basis, from the day of EAE-induction. One month after the disease onset, the animals are sacrificed and their brains and spinal cords are processed for histopathological analysis (performed by a blinded for the treatment arm, neuropathologist). This includes the evaluation of the number of inflammatory infiltrates and the number of cells per infiltrate, the degree of demyelination and of axonal damage. Another EAE model for MS which can be used for the compounds of the present invention and for identifying additional Myd88 inhibitors is described in Prinz et al 2006, J Clin Investigation, 116, 2 456-464, and Cohen et al 2010, J Immunol 184(1):212-21). In this model, C57B1 mice are immunized with MOG35-55 peptide ([…], SEQ ID NO: 4) emulsified in complete Freund's adjuvant (CFA) and pertussis toxin is administered systemically at the time of immunization and 48 h later. Mice are treated with the Myd88 inhibitor systemically and the mice are followed for development of ascending paralysis which typically begins on day 8-10 following immunization.
The effect of MIP administration on the clinical outcome of MOG35-55/CFA induced EAE was tested. […]
Following bioactivity characterization in vitro, the lead compound was evaluated for efficacy using the in vivo murine MOG35-55-induced EAE model of multiple sclerosis. […]

NFkB activation = test: NFkB-luciferase reporter in RAW 264.7 macrophages stimulated with LPS; assay type: cell-based, mouse; conditions: RAW 264.7 NFkB-luc, 4 hours
Protocol: FIG. 13. 4×4MyDI and Myr4×4MyDI block NFkB induction in response to LPS stimulation of RAW 264.7 NFkB-luc cells. RAW 264.7 murine macrophages were transfected with an NFkB-luciferase reporter gene and stimulated with LPS in the absence or presence of increasing concentrations of the inhibitors. After 4 hours cells were lysed and luminescence was recorded using a Tecan plate reader. BG denotes background.
In this assay the mouse macrophage RAW264.7 cell line is transfected with an NFkB-luciferase reporter construct and then cells are stimulated by exposure to bacterial LPS and light emission is measured after addition of luciferase substrate.

[1] = Parallel Artificial Membrane Permeability Assay (PAMPA); assay type: in vitro ADME; conditions: in comparison to metoprolol
From the text: FIG. 12. Papp of 4×4MyDI in the PAMPA model in comparison to metoprolol.

MyD88 TIR domain = target: T1, MyD88 TIR domain (Homo sapiens, UniProt Q99836); test: Competition assay: binding of biotinylated linear BB loop peptide to MyD88 TIR domain; conditions: different concentrations
T1 construct: made in house
T1 sequence (Q99836 151-296): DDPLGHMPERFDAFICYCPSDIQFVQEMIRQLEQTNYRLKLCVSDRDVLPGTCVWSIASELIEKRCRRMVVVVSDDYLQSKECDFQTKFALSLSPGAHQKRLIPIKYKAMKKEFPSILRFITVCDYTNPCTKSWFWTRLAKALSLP
Protocol: FIG. 9. 4×4MyDI binds to the BB loop region of the MyD88 TIR domain. A 96 well plate was coated with recombinant MyD88 (8 μg/ml) in coating buffer vs. buffer alone, and wells were blocked with 1% BSA. Biotinylated linear peptide was added to all wells (125 μg/ml) followed by streptavidin-HRP and substrate. The signal of linear peptide bound to its target was inhibited by incubation with the 4×4MyDI (*P<0.05) but not by incubation with the scrambled version of the linear peptide (SEQ ID NO: 5).
The ability of the 4×4MyDI compound to bind to the target region (the BB loop) of the MyD88 TIR domain, was evaluated using a newly-designed assay. For this goal a competition assay was established that tests the ability of the 4×4MyDI compound to prevent the binding of the biotinylated linear BB loop peptide to the MyD88 TIR domain. The MyD88 TIR domain was produced as a recombinant protein fused to the SUMO3 protein (Accession # NP_008867), purified, and attached to a 96 well plate. Binding of biotinylated RDVLPGT (SEQ. ID NO: 1) peptide was detected using streptavidin conjugated to horse radish peroxidase (HRP) followed by the addition of HRP substrate.

[2] = system: MyD88-dependent signaling; test: TNFα production by THP-1 derived macrophages stimulated with PAM3csk; assay type: cell-based, human; conditions: THP-1 macrophages, PAM3csk overnight
Protocol: FIG. 5. Human monocytic THP-1 cells were differentiated to macrophages and were stimulated with PAM3csk overnight in the absence or presence of the cyclic 4-carbon bridge peptide or 6-carbon bridge peptide. TNFα levels in the supernatants were determined by ELISA.
Both cyclic peptides were synthesized with the addition of a tryptophan group to the N-terminus to enable accurate quantification of the molecules.

Structure (SMILES): CC(C)C[C@@H]1NC(=O)[C@H](C(C)C)NC(=O)[C@H](CC(=O)O)NC(=O)[C@H](CCCNC(=N)N)NC(=O)CN(C(=O)[C@@H](N)Cc2c[nH]c3ccccc23)CCCCNC(=O)NCCCCN(CC(=O)NCC(=O)N[C@H](C(N)=O)[C@@H](C)O)C1=O [4×4MyDI] (H-W[Nlys]RDVL[Nlys]GT-NH2; linker 2-7 via CO; N-terminus assumed)
- EAE disease severity (MOG35-55/CFA induced EAE; 4 mg/Kg i.p. three times a week from day 0): significant reduction in disease severity; also recorded: significantly reduced disease severity
- EAE disease severity (MOG35-55/CFA induced EAE; 4 mg/Kg i.p. three times a week from day 7): behaved similarly to the control group
- EAE disease severity (MOG35-55/CFA induced EAE; 40 mg/Kg on day zero and day three only): reduced disease severity even further
- survival (MOG35-55/CFA induced EAE; 4×4MyDI from day 0, three times a week, vs PBS): better rate of survival
- block of NFkB activation (NFkB activation): block NFkB activation in a dose dependent manner
- passive diffusion through a lipid layer (Papp PAMPA) [1]: does not diffuse well through a lipid layer
- inhibition of binding of the biotinylated peptide to the MyD88 TIR domain (MyD88 TIR domain): competitively inhibited
- inhibition of TNFα production [2]: outperformed the 6-carbon bridge peptide
